Assay results reported in the supplement of paper PMC10307832.

Experiments:
Test in all cases: relative viability (nuclei count vs DMSO), 5 days (fraction); higher = more cells survive
ABC-1 = system: ABC-1
Summary of the method: (§1)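 Values are medians from duplicate plates. Each reflects relative viability, defined as the nuclei count of treated wells over that of vehicle wells. Lung cancer cell lines in 1536-well plates were pin-tool dosed one day after seeding with one drug alone or with a fixed anchor-drug dose plus five library-drug doses (not always all listed) in √10 steps, then fixed, stained and imaged at 4× after 5 days.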

NCI-H838 = system: NCI-H838
Summary of the method: as §1

EMC-BAC-2 = system: EMC-BAC-2
Summary of the method: as §1

NCI-H2347 = system: NCI-H2347
Summary of the method: as §1

HOP-62 = system: HOP-62
Summary of the method: as §1

SW 900 = system: SW 900
Summary of the method: as §1

NCI-H3122 = system: NCI-H3122
Summary of the method: as §1

PC-14 = system: PC-14
Summary of the method: as §1

ChaGo-K-1 = system: ChaGo-K-1
Summary of the method: as §1

EKVX = system: EKVX
Summary of the method: as §1

NCI-H2228 = system: NCI-H2228
Summary of the method: as §1

SK-MES-1 = system: SK-MES-1
Summary of the method: as §1

201T = system: 201T
Summary of the method: as §1

RERF-LC-KJ = system: RERF-LC-KJ
Summary of the method: as §1

SW 1573 = system: SW 1573
Summary of the method: as §1

NCI-H1355 = system: NCI-H1355
Summary of the method: as §1

UMC-11 = system: UMC-11
Summary of the method: as §1

NCI-H2009 = system: NCI-H2009
Summary of the method: as §1

LK-2 = system: LK-2
Summary of the method: as §1

HCC-78 = system: HCC-78
Summary of the method: as §1

LC-2-ad = system: LC-2-ad
Summary of the method: as §1

In the case of `COCC1(CO)C(=O)C2CCN1CC2` (stereo not given) [PRIMA-1MET] + COc1cc2c(Oc3ccc(NC(=O)C4(C(=O)Nc5ccc(F)cc5)CC4)cc3F)ccnc2cc1OCCCN1CCOCC1 [Foretinib] (partner 0.25 µM), the relative viability (ABC-1; first compound 0.2 µM) is reported as 1.19, the relative viability (ABC-1; first compound 0.6325 µM) is reported as 0.937 and the relative viability (ABC-1; first compound 2 µM) is reported as 1.25. For the same compound, the relative viability (ABC-1; first compound 6.325 µM) was 1.03, the relative viability (ABC-1; first compound 20 µM) was 0.505 and the relative viability (NCI-H838; first compound 0.2 µM) was 1.23. For the same compound, the relative viability (NCI-H838; first compound 0.6325 µM) was 0.822, the relative viability (NCI-H838; first compound 2 µM) was 1.02 and the relative viability (NCI-H838; first compound 6.325 µM) was 1.07. It also gave a relative viability (NCI-H838; first compound 20 µM) of 0.683, a relative viability (EMC-BAC-2; first compound 0.2 µM) of 1.17 and a relative viability (EMC-BAC-2; first compound 0.6325 µM) of 1.01. For the same compound, the relative viability (EMC-BAC-2; first compound 6.325 µM) was 1.04, the relative viability (EMC-BAC-2; first compound 20 µM) was 1.03 and the relative viability (NCI-H2347; first compound 0.2 µM) was 0.876. The relative viability (NCI-H2347; first compound 0.6325 µM) was 0.724, the relative viability (NCI-H2347; first compound 6.325 µM) was 1.1 and the relative viability (NCI-H2347; first compound 20 µM) was 0.814. It also gave a relative viability (HOP-62; first compound 0.2 µM) of 1.18, a relative viability (HOP-62; first compound 0.6325 µM) of 1.07 and a relative viability (HOP-62; first compound 2 µM) of 0.931. For the same compound, the relative viability (HOP-62; first compound 6.325 µM) was 1.1, the relative viability (HOP-62; first compound 20 µM) was 0.799 and the relative viability (SW 900; first compound 0.2 µM) was 0.928. For the same compound, the relative viability (SW 900; first compound 0.6325 µM) was 1.13, the relative viability (SW 900; first compound 2 µM) was 0.699 and the relative viability (SW 900; first compound 6.325 µM) was 0.451. It also gave a relative viability (SW 900; first compound 20 µM) of 0.051, a relative viability (NCI-H3122; first compound 0.2 µM) of 0.739 and a relative viability (NCI-H3122; first compound 0.6325 µM) of 0.762. The relative viability (NCI-H3122; first compound 2 µM) was 0.963, the relative viability (NCI-H3122; first compound 6.325 µM) was 0.984 and the relative viability (NCI-H3122; first compound 20 µM) was 0.882. It also gave a relative viability (PC-14; first compound 0.2 µM) of 1.01, a relative viability (PC-14; first compound 0.6325 µM) of 0.87 and a relative viability (PC-14; first compound 2 µM) of 0.931. For the same compound, the relative viability (PC-14; first compound 6.325 µM) was 1.12, the relative viability (PC-14; first compound 20 µM) was 0.914 and the relative viability (ChaGo-K-1; first compound 0.2 µM) was 1.03. The relative viability (ChaGo-K-1; first compound 0.6325 µM) was 0.838, the relative viability (ChaGo-K-1; first compound 2 µM) was 0.911 and the relative viability (ChaGo-K-1; first compound 6.325 µM) was 1.01. It also gave a relative viability (ChaGo-K-1; first compound 20 µM) of 0.859, a relative viability (EKVX; first compound 0.2 µM) of 0.988 and a relative viability (EKVX; first compound 0.6325 µM) of 0.518. It also gave a relative viability (EKVX; first compound 6.325 µM) of 1.1, a relative viability (EKVX; first compound 20 µM) of 0.843 and a relative viability (NCI-H2228; first compound 0.2 µM) of 0.973. The relative viability (NCI-H2228; first compound 0.6325 µM) was 0.938, the relative viability (NCI-H2228; first compound 2 µM) was 0.87 and the relative viability (NCI-H2228; first compound 6.325 µM) was 0.952. The relative viability (NCI-H2228; first compound 20 µM) was 0.0309, the relative viability (SK-MES-1; first compound 0.2 µM) was 1.11 and the relative viability (SK-MES-1; first compound 0.6325 µM) was 0.941. It also gave a relative viability (SK-MES-1; first compound 2 µM) of 0.795, a relative viability (SK-MES-1; first compound 6.325 µM) of 1.15 and a relative viability (SK-MES-1; first compound 20 µM) of 0.955. For the same compound, the relative viability (201T; first compound 0.2 µM) was 1.33, the relative viability (201T; first compound 0.6325 µM) was 1.09 and the relative viability (201T; first compound 2 µM) was 0.97. For the same compound, the relative viability (201T; first compound 6.325 µM) was 1.15, the relative viability (201T; first compound 20 µM) was 1.08 and the relative viability (RERF-LC-KJ; first compound 0.2 µM) was 0.872. The relative viability (RERF-LC-KJ; first compound 0.6325 µM) was 0.878, the relative viability (RERF-LC-KJ; first compound 2 µM) was 0.922 and the relative viability (RERF-LC-KJ; first compound 6.325 µM) was 0.957. The relative viability (RERF-LC-KJ; first compound 20 µM) was 0.819, the relative viability (SW 1573; first compound 0.2 µM) was 1.36 and the relative viability (SW 1573; first compound 0.6325 µM) was 0.404. For the same compound, the relative viability (SW 1573; first compound 2 µM) was 0.777, the relative viability (SW 1573; first compound 6.325 µM) was 0.485 and the relative viability (SW 1573; first compound 20 µM) was 0.0333. For the same compound, the relative viability (NCI-H1355; first compound 0.2 µM) was 1.02, the relative viability (NCI-H1355; first compound 0.6325 µM) was 0.846 and the relative viability (NCI-H1355; first compound 2 µM) was 1.01. It also gave a relative viability (NCI-H1355; first compound 6.325 µM) of 1.01, a relative viability (NCI-H1355; first compound 20 µM) of 0.956 and a relative viability (UMC-11; first compound 0.2 µM) of 1.15. For the same compound, the relative viability (UMC-11; first compound 0.6325 µM) was 0.916, the relative viability (UMC-11; first compound 2 µM) was 0.963 and the relative viability (UMC-11; first compound 6.325 µM) was 0.979. For the same compound, the relative viability (UMC-11; first compound 20 µM) was 1.02, the relative viability (NCI-H2009; first compound 0.2 µM) was 1.33 and the relative viability (NCI-H2009; first compound 0.6325 µM) was 1.17. For the same compound, the relative viability (NCI-H2009; first compound 2 µM) was 1.22, the relative viability (NCI-H2009; first compound 6.325 µM) was 1.22 and the relative viability (NCI-H2009; first compound 20 µM) was 0.52. For the same compound, the relative viability (LK-2; first compound 0.2 µM) was 1.4, the relative viability (LK-2; first compound 0.6325 µM) was 1.16 and the relative viability (LK-2; first compound 2 µM) was 0.567. For the same compound, the relative viability (LK-2; first compound 6.325 µM) was 0.752, the relative viability (LK-2; first compound 20 µM) was 0.147 and the relative viability (HCC-78; first compound 0.2 µM) was 0.671. The relative viability (HCC-78; first compound 0.6325 µM) was 0.477, the relative viability (HCC-78; first compound 6.325 µM) was 0.54 and the relative viability (HCC-78; first compound 20 µM) was 0.441. For the same compound, the relative viability (LC-2-ad; first compound 0.2 µM) was 0.987, the relative viability (LC-2-ad; first compound 2 µM) was 0.843 and the relative viability (LC-2-ad; first compound 6.325 µM) was 0.887. The relative viability (LC-2-ad; first compound 20 µM) was 0.966.
